Patent publication US11850247B2, “Antiviral compounds” (REGENTS OF THE UNIVERSITY OF MINNESOTA, priority 2020, dated 2023)

Legend:
[1] = Cytotoxicity in TZM-GFP cells (XTT); type: cell-based; details: human, 72 hours exposure, XTT
Protocol: (§1) The cytotoxicity of each compound was also determined in TZM-GFP cells. Cells were plated at a density of 1×10^4 cells per well in a 96-well plate and were continuously exposed to increasing concentrations of a compound for 72 hours. The number of viable cells in each well was determined using a Cell Proliferation Kit II (XTT), and 50% cytotoxicity concentration (CC50) values were determined. All the cell-based assays were conducted in duplicate and in at least two independent experiments. For the EC50 and CC50 dose responses, values were plotted in GraphPad Prism 5 and analyzed with the log (inhibitor) vs. normalized response-variable slope equation. Final values were calculated in each independent assay and the average values were determined. Statistical analysis (calculation of standard deviation) was performed by using Microsoft Excel.

[2] = tested on: HIV-1; assay: Anti-HIV-1 activity in TZM-GFP cells (viral LTR-activated GFP expression); type: cell-based; details: for EC50: Human immunodeficiency virus 1, HIV-1 strain MOI=1, GFP positive cells counted after 48 hours; for inhibition at 2 µM: Human immunodeficiency virus 1, 2 μM compound; for inhibition at 2 µM / inhibition at 20 µM: HIV-1 MOI=1; for inhibition at 20 µM: Human immunodeficiency virus 1, 20 μM compound
Protocol: The potency of HIV-1 inhibition by a compound was based on its inhibitory effect on viral LTR-activated GFP expression compared with that of compound-free (DMSO) controls. Briefly, TZM-GFP cells were plated at density of 1×10^4 cells per well in a 96-well plate. 24 hours later, media was replaced with increasing concentrations of compound. 24 hours post treatment, cells were exposed to an HIV-1 strain (MOI=1).
as §1

[3] = molecular target: covalently-crosslinked hexameric CA A14C/E45C/W184A/M185A (CA121) (Human immunodeficiency virus type 1 group M subtype B, UniProt P12493, A146C/E177C/M317A/W316A); assay: Thermal shift assay (TSA), CA hexamer stability; type: binding, HIV-1; details: compound 20 μM, ΔTm=Tm−T0 vs DMSO

| Compound | CC50 at 72 h [1] [µM] | EC50 [2] [µM] | TSA ΔTm (° C.) [3] [°C] | inhibition at 2 µM [2] [%] | inhibition at 20 µM [2] [%] |
| --- | --- | --- | --- | --- | --- |
| CN(C(=O)[C@H](Cc1ccccc1)NC(=O)Cc1cccc2ccccc12)c1ccc(Cl)cc1 [Example 18, (S)—N-(4-chlorophenyl)-N-methyl-2-(2-(naphthalen-1-yl)acetamido)-3-phenylpropanamide] | < 50 | 0.83 ± 0.03 | 7.2 | – | – |
| CN(C(=O)[C@H](Cc1ccccc1)NC(=O)Cc1cccc2ccccc12)c1cccc(Cl)c1 [Example 19, (S)—N-(3-chlorophenyl)-N-methyl-2-(2-(naphthalen-1-yl)acetamido)-3-phenylpropanamide] | < 50 | – | 4.4 | 53 | 96 |
| CN(C(=O)[C@H](Cc1ccccc1)NC(=O)Cc1cccc2ccccc12)c1cccc(F)c1 [Example 20, (S)—N-(3-fluorophenyl)-N-methyl-2-(2-(naphthalen-1-yl)acetamido)-3-phenylpropanamide] | < 50 | – | 5.4 | 44 | 97 |
| CCN(C(=O)[C@H](Cc1ccccc1)NC(=O)Cc1cccc2ccccc12)c1ccccc1 [Example 21, (S)—N-ethyl-2-(2-(naphthalen-1-yl)acetamido)-N,3-diphenylpropanamide] | < 50 | 1.8 ± 0.09 | 4.9 | – | – |
| CN(C(=O)[C@H](Cc1ccccc1)NC(=O)CN1C(=O)NC2(CCCCC2)C1=O)c1ccccc1 [Example 22, 2-(2-(2,4-dioxo-1,3-diazaspiro[4.5]decan-3-yl)acetamido)-N-methyl-N,3-diphenylpropanamide] | > 100 | 8.9 ± 1.5 | 1.3 | – | – |
| COc1ccc(N(C)C(=O)[C@H](Cc2ccccc2)NC(=O)CN2C(=O)NC3(CCCCC3)C2=O)cc1 [Example 23, 2-(2-(2,4-dioxo-1,3-diazaspiro[4.5]decan-3-yl)acetamido)-N-(4-methoxyphenyl)-N-methyl-3-phenylpropanamide] | > 100 | 5.1 ± 2 | 1.8 | – | – |
| Cc1ccc(N(C)C(=O)[C@H](Cc2ccccc2)NC(=O)CN2C(=O)NC3(CCCCC3)C2=O)cc1 [Example 24, 2-(2-(2,4-dioxo-1,3-diazaspiro[4.5]decan-3-yl)acetamido)-N-methyl-3-phenyl-N-(p-tolyl)propenamide] | > 100 | 1.9 ± 0.5 | 2.7 | – | – |
| CN(C(=O)[C@H](Cc1ccccc1)NC(=O)CN1C(=O)NC2(CCCCC2)C1=O)c1ccc(F)cc1 [Example 25, 2-(2-(2,4-dioxo-1,3-diazaspiro[4.5]decan-3-yl)acetamido)-N-(4-fluorophenyl)-N-methyl-3-phenylpropanamide] | > 50 | – | 3.1 | 9 | 99 |
| CN(C(=O)[C@H](Cc1ccccc1)NC(=O)CN1C(=O)NC2(CCCCC2)C1=O)c1cccc(F)c1 [Example 26, 2-(2-(2,4-dioxo-1,3-diazaspiro[4.5]decan-3-yl)acetamido)-N-(3-fluorophenyl)-N-methyl-3-phenylpropanamide] | > 50 | – | 1.3 | 24 | 98 |
| CN(C(=O)[C@H](Cc1ccccc1)NC(=O)CN1C(=O)NC2(CCCCC2)C1=O)c1ccc(Cl)cc1 [Example 27, N-(4-chlorophenyl)-2-(2-(2,4-dioxo-1,3-diazaspiro[4.5]decan-3-yl)acetamido)-N-methyl-3-phenylpropanamide] | > 100 | 2.5 ± 0.5 | 2.2 | – | – |
| CN(C(=O)[C@H](Cc1ccccc1)NC(=O)CN1C(=O)NC2(CCCCC2)C1=O)c1cccc(Cl)c1 [Example 28, N-(3-chlorophenyl)-2-(2-(2,4-dioxo-1,3-diazaspiro[4.5]decan-3-yl)acetamido)-N-methyl-3-phenylpropanamide] | < 50 | – | 3.3 | 9 | 98 |
| CN(C(=O)[C@H](Cc1ccccc1)NC(=O)CN1C(=O)NC2(CCCCC2)C1=O)c1cccc(Br)c1 [Example 29, N-(3-bromophenyl)-2-(2-(2,4-dioxo-1,3-diazaspiro[4.5]decan-3-yl)acetamido)-N-methyl-3-phenylpropanamide] | > 50 | > 20 | 1.5 | – | – |
| CCN(C(=O)[C@H](Cc1ccccc1)NC(=O)CN1C(=O)NC2(CCCCC2)C1=O)c1ccccc1 [Example 30, 2-(2-(2,4-dioxo-1,3-diazaspiro[4.5]decan-3-yl)acetamido)-N-ethyl-N,3-diphenylpropanamide] | > 100 | 7.6 ± 0.9 | 2.0 | – | – |
| CN(C(=O)[C@H](Cc1ccccc1)NC(=O)Cn1c(=O)[nH]c2ccccc2c1=O)c1ccccc1 [Example 31, (S)-2-(2-(2,4-dioxo-1,4-dihydroquinazolin-3(2H)-yl)acetamido)-N-methyl-N,3-diphenylpropanamide] | > 100 | 6.9 ± 0.8 | 2.7 | – | – |
| CN(C(=O)[C@H](Cc1ccccc1)NC(=O)Cn1c(=O)[nH]c2ccccc2c1=O)c1ccc(F)cc1 [Example 32, (S)-2-(2-(2,4-dioxo-1,4-dihydroquinazolin-3(2H)-yl)acetamido)-N-(4-fluorophenyl)-N-methyl-3-phenylpropanamide] | > 100 | 8 ± 1.3 | 2.4 | – | – |
| CN(C(=O)[C@H](Cc1ccccc1)NC(=O)CNC(=O)c1ccccc1)c1ccccc1 [Example 34, (S)—N-(2-((1-(methyl(phenyl)amino)-1-oxo-3-phenylpropan-2-yl)amino)-2-oxoethyl)benzamide] | > 50 | – | 1.3 | 15 | 96 |
| Cc1ccc(N(C)C(=O)[C@H](Cc2ccccc2)NC(=O)CNC(=O)c2ccccc2)cc1 [Example 35, (S)—N-(2-((1-(methyl(p-tolyl)amino)-1-oxo-3-phenylpropan-2-yl)amino)-2-oxoethyl)benzamide] | > 50 | 1.6 ± 0.02 | 5.0 | – | – |
| CN(C(=O)[C@H](Cc1ccccc1)NC(=O)CNC(=O)c1ccccc1)c1ccc(Cl)cc1 [Example 36, (S)—N-(2-((1-((4-chlorophenyl)(methyl)amino)-1-oxo-3-phenylpropan-2-yl)amino)-2-oxoethyl)benzamide] | > 50 | 0.88 ± 0.02 | 4.1 | – | – |
| CN(C(=O)[C@H](Cc1ccccc1)NC(=O)CNC(=O)c1ccccc1)c1cccc(Cl)c1 [Example 37, (S)—N-(2-((1-((3-chlorophenyl)(methyl)amino)-1-oxo-3-phenylpropan-2-yl)amino)-2-oxoethyl)benzamide] | > 50 | – | 2.0 | 40 | 95 |
| CN(C(=O)[C@H](Cc1ccccc1)NC(=O)CNC(=O)c1ccccc1)c1ccc(F)cc1 [Example 38, (S)—N-(2-((1-((4-fluorophenyl)(methyl)amino)-1-oxo-3-phenylpropan-2-yl)amino)-2-oxoethyl)benzamide] | > 50 | – | 2.2 | 12 | 97 |
